US12247018B2, “Aryl-n-aryl derivatives for treating a RNA virus infection” (ABIVAX, priority 2018, dated 2025)

Test system: RSV A2
Experiment: RSV inhibition (cytopathic effect) in HEp-2 cells using Viral ToxGlo assay
Format: cell-based
Settings: human respiratory syncytial virus; RSV A2, HEp-2 cells, MOI 0.5, 72 h p.i.
Protocol: Protocol for Screening Antiviral Compounds for RSV Inhibition and Cytotoxicity Using Viral ToxGlo Assay
HEp-2 cells were maintained in Eagle's minimum essential medium (EMEM) with Earle's BSS adjusted to contain 2 mM L-glutamine, 10% fetal bovine serum, 100 U/ml penicillin and 100 μg/ml streptomycin. For the purposes of the screening assay they were grown to 90% confluency, trypsinized and recovered. The trypsin was neutralised with cell culture media and cells were centrifuged at 150×g for 5 minutes before discarding the supernatant and resuspending cell pellet in assay media (EMEM with Earle's BSS adjusted to contain 2 mM L-glutamine, 2% fetal bovine serum and 100 U/ml penicillin and 100 μg/ml streptomycin). The cells were seeded into white clear-bottomed cell culture plates at a density of 1.5×10^4 cells/well in 50 μl and 4×10^3 cells/well in 25 μl for 96 well plates and 384 well plates respectively. For the media/background control column assay media only was added. Cell plates were placed in a humid chamber and incubated overnight at 37° C./5% CO2. After overnight incubation cells were checked for confluency and healthy appearance.
Test articles were made up at 10× test concentration in a maximum DMSO concentration of 10% (final assay concentration maximal 1% DMSO) and added to the cell plates in volumes of 10 μl for 96 well plates and 5 μl for 384 well plates. For cell control and virus control wells the test article solvent only was added. Virus or assay media for cytotoxicity test wells and media/cell control wells was added immediately after test articles at an MOI of 0.5, 40 or 20 μl for 96 and 384 well plates respectively. Virus suspension was prepared by thawing RSV A2 frozen stocks and diluting to the required concentration of plaque forming units in assay media on ice.
Cell plates were further incubated inside a humid chamber for 72 h p.i at 37° C./5% CO2. After the incubation period cells were observed under the microscope to check for characteristic cytopathic effect in virus control wells and healthy cells in the cell control wells. After plates were adjusted to room temperature 20/40 μl Viral ToxGlo (Promega) was added to each well of the 384/96 well cell plates. Plates were incubated at room temperature, protected from light on a plate rocker for 20 minutes before measuring the luminescence on a spectrophotometer (Biotek Synergy HTX).

SMILES | EC50 [µM]
CC(C)CCCOc1cccc(Nc2ccc(C(=O)N=C3NCCCN3)cc2C2CC2)c1 [compound 132, 3-cyclopropyl-N-(1,3-diazinan-2-ylidene)-4-({3-[(4-methylpentyl)oxy]phenyl}amino)benzamide] | 0.259
CC(C)CNC(=O)c1cccc(Nc2ccc(C(=O)N=C3NCCCN3)cc2C2CC2)c1 [compound 131, 3-cyclopropyl-N-(1,3-diazinan-2-ylidene)-4-({3-[(2-methylpropyl)carbamoyl]phenyl}amino)benzamide] | 0.246
O=C(N=C1NCCCN1)c1ccc(Nc2cccc(OCCCC3CCCCC3)c2)c(C2CC2)c1 [compound 115, 4-{[3-(3-cyclohexylpropoxy)phenyl]amino}-3-cyclopropyl-N-(1,3-diazinan-2-ylidene)benzamide] | 0.11
CC1CN(C(=O)c2cccc(Nc3ccc(C(=O)/N=C4\NCCC(=O)N4)cc3C3CC3)c2Cl)CCO1 (stereo not shown) [compound 92, 4-{[2-chloro-3-(2-methylmorpholine-4-carbonyl)phenyl]amino}-3-cyclopropyl-N-[(2E)-4-oxo-1,3-diazinan-2-ylidene]benzamide] | 0.002
Cc1c(N)cccc1Nc1ccc(C(=O)N=C2NCCCN2)cc1C1CC1 [compound 135, 4-[(3-amino-2-methylphenyl)amino]-3-cyclopropyl-N-(1,3-diazinan-2-ylidene)benzamide] | 0.286
O=C1CCN/C(=N\C(=O)c2ccc(Nc3cccc(C(=O)N4CCOCC4)c3)c(C3CC3)c2)N1 [compound 164, 3-cyclopropyl-4-{[3-(morpholine-4-carbonyl)phenyl]amino}-N-[(2E)-4-oxo-1,3-diazinan-2-ylidene]benzamide] | 1.5
O=C1CCN/C(=N\C(=O)c2ccc(Nc3cccc(C(=O)NC4CC4)c3)c(C3CC3)c2)N1 [compound 145, 3-cyclopropyl-4-{[3-(cyclopropylcarbamoyl)phenyl]amino}-N-[(2E)-4-oxo-1,3-diazinan-2-ylidene]benzamide] | 0.421
CC(C)(C)NC(=O)c1cccc(Nc2ccc(C(=O)N=C3NCCCN3)cc2C2CC2)c1 [compound 123, 4-{[3-(tert-butylcarbamoyl)phenyl]amino}-3-cyclopropyl-N-(1,3-diazinan-2-ylidene)benzamide] | 0.147
O=C(N=C1NCCCN1)c1ccc(Nc2cccc(C(=O)N3CCOCC3)c2)c(C2CC2)c1 [compound 158, 3-cyclopropyl-N-(1,3-diazinan-2-ylidene)-4-{[3-(morpholine-4-carbonyl)phenyl]amino}benzamide] | 1.03
O=C(N=C1NCCCN1)c1ccc(Nc2cccc(C(=O)NC3CC(F)(F)C3)c2)c(C2CC2)c1 [compound 152, 3-cyclopropyl-N-(1,3-diazinan-2-ylidene)-4-({3-[(3,3-difluorocyclobutyl)carbamoyl]phenyl}amino)benzamide] | 0.593
CC(C)NC(=O)c1cccc(Nc2ccc(C(=O)/N=C3\NCCCN3C)cc2C2CC2)c1 [compound 108, 3-cyclopropyl-N-[(2E)-1-methyl-1,3-diazinan-2-ylidene]-4-({3-[(propan-2-yl)carbamoyl]phenyl}amino)benzamide] | 0.077
O=C(N=C1NCCCN1)c1ccc(Nc2cccc(OC(F)(F)F)c2)c(C2CC2)c1 [compound 137, 3-cyclopropyl-N-(1,3-diazinan-2-ylidene)-4-{[3-(trifluoromethoxy)phenyl]amino}benzamide] | 0.304
O=C(N=C1NCCCN1)c1ccc(Nc2cccc(C(=O)NC3CCOCC3)c2)c(C2CC2)c1 [compound 157, 3-cyclopropyl-N-(1,3-diazinan-2-ylidene)-4-({3-[(oxan-4-yl)carbamoyl]phenyl}amino)benzamide] | 1.03
O=C(N=C1NCCCN1)c1ccc(Nc2cccc(OCC(F)F)c2)c(C2CC2)c1 [compound 125, 3-cyclopropyl-N-(1,3-diazinan-2-ylidene)-4-{[3-(2,2-difluoroethoxy)phenyl]amino}benzamide] | 0.151
O=C1CCN/C(=N\C(=O)c2ccc(Nc3cccc(OCCCC4CCCCC4)c3)c(C3CC3)c2)N1 [compound 97, 4-{[3-(3-cyclohexylpropoxy)phenyl]amino}-3-cyclopropyl-N-[(2E)-4-oxo-1,3-diazinan-2-ylidene]benzamide] | 0.025
Cc1cc(C(=O)N=C2NCCCN2)ccc1Nc1cccc(OCCCC2CCCCC2)c1 [compound 156, 4-{[3-(3-cyclohexylpropoxy)phenyl]amino}-N-(1,3-diazinan-2-ylidene)-3-methylbenzamide] | 0.966

SMILES | EC50 [µM]
O=C(N=C1NCCCN1)c1ccc(Nc2cccc(OCCC3CCCCC3)c2)c(C2CC2)c1 [compound 130, 4-{[3-(2-cyclohexylethoxy)phenyl]amino}-3-cyclopropyl-N-(1,3-diazinan-2-ylidene)benzamide] | 0.234
O=C(N=C1NCCCN1)c1ccc(Nc2cccc(-c3nnn(CCCC4CCCCC4)n3)c2)c(C2CC2)c1 [compound 149, 4-({3-[2-(3-cyclohexylpropyl)-2H-1,2,3,4-tetrazol-5-yl]phenyl}amino)-3-cyclopropyl-N-(1,3-diazinan-2-ylidene)benzamide] | 0.494
O=C(N=C1NCCCN1)c1ccc(Nc2cccc(OC3CCC3)c2)c(C2CC2)c1 [compound 129, 4-[(3-cyclobutoxyphenyl)amino]-3-cyclopropyl-N-(1,3-diazinan-2-ylidene)benzamide] | 0.223
CC(C)CCS(=O)(=O)Nc1cccc(Nc2ccc(C(=O)/N=C3\NCCC(=O)N3)cc2C(C)(C)C)c1 [compound 94, 3-tert-butyl-4-{[3-(3-methylbutanesulfonamido)phenyl]amino}-N-[(2E)-4-oxo-1,3-diazinan-2-ylidene]benzamide] | 0.017
O=C(N=C1NCCCN1)c1ccc(Nc2ccnc(C(=O)NCCC3CCCCC3)c2)c(C2CC2)c1 [compound 138, N-(2-cyclohexylethyl)-4-({2-cyclopropyl-4-[(1,3-diazinan-2-ylidene)carbamoyl]phenyl}amino)pyridine-2-carboxamide] | 0.31
O=C(N=C1NCCCN1)c1ccc(Nc2cccc(OC(F)F)c2)c(C2CC2)c1 [compound 112, 3-cyclopropyl-N-(1,3-diazinan-2-ylidene)-4-{[3-(difluoromethoxy)phenyl]amino}benzamide] | 0.097
O=C1CCN/C(=N\C(=O)c2ccc(Nc3cccc(OCC4COCCO4)c3)c(C3CC3)c2)N1 (stereo not shown) [compound 161, 3-cyclopropyl-4-({3-[(1,4-dioxan-2-yl)methoxy]phenyl}amino)-N-[(2E)-4-oxo-1,3-diazinan-2-ylidene]benzamide] | 1.31
CC1(NC(=O)c2cccc(Nc3ccc(C(=O)/N=C4\NCCC(=O)N4)cc3C3CC3)c2)CC1 [compound 121, 3-cyclopropyl-4-({3-[(1-methylcyclopropyl)carbamoyl]phenyl}amino)-N-[(2E)-4-oxo-1,3-diazinan-2-ylidene]benzamide] | 0.139
Cc1cc(C(=O)N=C2NCCCN2)ccc1Nc1cccc(NC(=O)CCC2CCCCC2)c1 [compound 153, 4-{[3-(3-cyclohexylpropanamido)phenyl]amino}-N-(1,3-diazinan-2-ylidene)-3-methylbenzamide] | 0.704
CC1(C)CN1C(=O)c1cccc(Nc2ccc(C(=O)N=C3NCCCN3)cc2C2CC2)c1 [compound 154, 3-cyclopropyl-N-(1,3-diazinan-2-ylidene)-4-{[3-(2,2-dimethylaziridine-1-carbonyl)phenyl]amino}benzamide] | 0.917
CCC(CC)NC(=O)c1cccc(Nc2ccc(C(=O)N=C3NCCCN3)cc2C2CC2)c1 [compound 110, 3-cyclopropyl-N-(1,3-diazinan-2-ylidene)-4-({3-[(pentan-3-yl)carbamoyl]phenyl}amino)benzamide] | 0.08
Cc1c(Nc2ccc(C(=O)N=C3NCCCN3)cc2C2CC2)cccc1C(=O)NC1(C#N)CC1 [compound 165, 4-({3-[(1-cyanocyclopropyl)carbamoyl]-2-methylphenyl}amino)-3-cyclopropyl-N-(1,3-diazinan-2-ylidene)benzamide] | 1.76
O=C(N=C1NCCCN1)c1ccc(Nc2cccc(-n3cc(CC4CCCCC4)nn3)c2)c(C2CC2)c1 [compound 119, 4-({3-[4-(cyclohexylmethyl)-1H-1,2,3-triazol-1-yl]phenyl}amino)-3-cyclopropyl-N-(1,3-diazinan-2-ylidene)benzamide] | 0.13
CC(C)C(=O)Nc1cccc(Nc2ccc(C(=O)/N=C3\NCCC(=O)N3)cc2C2CC2)c1 [compound 116, 3-cyclopropyl-4-{[3-(2-methylpropanamido)phenyl]amino}-N-[(2E)-4-oxo-1,3-diazinan-2-ylidene]benzamide] | 0.122
O=C(N=C1NCCCN1)c1ccc(Nc2cccc(C(=O)NC3CC3)c2)c(C2CC2)c1 [compound 114, 3-cyclopropyl-4-{[3-(cyclopropylcarbamoyl)phenyl]amino}-N-(1,3-diazinan-2-ylidene)benzamide] | 0.11
